Legend:
L929 = assay: Apoptotic bodies by morphology (Giemsa), L929; assay type: cell-based, mouse; details: 48 hrs, Ara-C 5 μg/mL, mean ± standard deviation
Experimental: (§1) Once elapsed that time, cells were collected and placed on a slide; then were fixed with 1 mL of methanol and stained for 20 minutes with 10% Giemsa stain. Cells were observed under a microscope (Cari Zeiss, Primo Star, Germany) equipped with 100× objective lens. Morphological changes like decreased cell volume, chromatin condensation, loss of cell membrane regularity, were cytomorphological parameters evaluated in the formation of apoptotic bodies. 200 cells of each experiment were counted to obtain the percentage of normal and apoptotic cells.

HeLa = assay: Apoptotic bodies by morphology (Giemsa), HeLa; assay type: cell-based, human; details: 48 hrs, Ara-C 5 μg/mL, mean ± standard deviation
Experimental: as §1

WEHI-3 [1] = assay: Apoptosis induction through DNA fragmentation (agarose gel); details: WEHI-3 grown 48 hours, extract at IC50, FIG. 3
Experimental: Apoptosis induction was evaluated through DNA fragmentation.

K-562 = assay: Cell viability by trypan blue exclusion, K-562; assay type: cell-based; details: K562
Experimental: On the other hand, the cell viability was evaluated in order to determine that the extract only acts against tumor cells, for which purpose tumor cells were cultured for 72 hours under the above conditions in quantities of 200 μL of medium per well in 96-well, flat bottom, ultra-low adherence plates (Costar, Cambridge, Mass., USA) with various doses of extract.

normal bone marrow cells = assay: Proliferation of normal bone marrow cells, crystal violet technique; assay type: cell-based; details: normal mouse bone marrow cells; 5 µg/mL of citarabine; 5 days
Experimental: To determine the effect of the extract of Sechium edule hybrid named MH-387-07-GISeM” on tumor cells, HeLa cell lines, which are derived from adenocarcinoma of […] cervical epithelial tissue; cell line L929 derived from male mouse's fibrosarcoma of areolar and adipose subcutaneous connective […] tissue, WEHI-3 y K562 are lines derived from leukemia (liquid tumors) which are maintained in IMDM culture medium (Iscove's Modified Dulbecco's Medium). Tumor cells were cultured for 72 hours in 200 μL of culture medium and serum containing 0.0, 0.15, 0.3, 0.6, 1.2, 2.5 and 5 μg/mL of extract, and were evaluated by the crystal violet technique (FIG. 1). Cells were maintained in culture for 5 days after being stimulated with diverse doses of extract or Ara-C as a control (5 μM), and were evaluated by the crystal violet technique, FIG. 1, where a dose-response curve of the effect of H-387-07-GISeM extract on cell proliferation of lines EHI-3, HeLa, L929, and bone marrow cells was plotted. Values are the average of three tests with tree replicates. Lines above the bars indicate±standard deviation. * Significant difference (p<0.05) compared to control. […] On the other hand, normal bone marrow cells of mouse treated with […] achieve a proliferation of 60% compared to the control, but with 5 µg/mL of citarabine (Ara-c) it only reaches a 35%.

WEHI-3 [2] = assay: Apoptotic bodies by morphology (Giemsa), WEHI-3; assay type: cell-based, mouse; details: 48 hrs, Ara-C 5 μg/mL, mean ± standard deviation
Experimental: as §1

Nc1ccn([C@@H]2O[C@H](CO)[C@@H](O)[C@@H]2O)c(=O)n1 [Ara-C, citarabine]
% Apoptotic bodies (L929): 6 ± 1.4%
% Apoptotic bodies (HeLa): 21 ± 0%
DNA fragmentation (WEHI-3 [1]): experiences DNA fragmentation
effect on viability (K-562; Ara-c as worded in text): totally does so
proliferation compared to the control (normal bone marrow cells): 35%
% Apoptotic bodies (WEHI-3 [2]): 61.5 ± 8.2%

Cc1ccc(NC(=O)c2ccc(CN3CCN(C)CC3)cc2)cc1Nc1nccc(-c2cccnc2)n1 [imatinib]
viability at 1 µM (K-562; Homo sapiens, K-562, imatinib 1 μM (footnote), mean ± standard deviation): 4%
